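Five compound concentrations were applied to cells in 96-well plates for 48 hours; endpoints were derived by simple linear interpolation of the resulting dose-response curve. At the GI50, growth is halved. TGI: concentration producing complete growth inhibition.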
Tests used:
Assay in all cases: NCI tumour cell line growth inhibition, 48 h
SNB-75 CNS = test system: SNB-75 CNS
SW-620 colon = test system: SW-620 colon
SF-295 CNS = test system: SF-295 CNS
RPMI-8226 leukemia = test system: RPMI-8226 leukemia
HOP-62 NSCLC = test system: HOP-62 NSCLC
SK-MEL-5 melanoma = test system: SK-MEL-5 melanoma
HCT-116 colon = test system: HCT-116 colon
EKVX NSCLC = test system: EKVX NSCLC
COLO 205 colon = test system: COLO 205 colon
HCT-15 colon = test system: HCT-15 colon
T-47D breast = test system: T-47D breast
CAKI-1 renal = test system: CAKI-1 renal
NCI-H522 lung = test system: NCI-H522 lung
IGROV1 ovarian = test system: IGROV1 ovarian
SR leukemia = test system: SR leukemia
OVCAR-4 ovarian = test system: OVCAR-4 ovarian
MDA-MB-231 breast = test system: MDA-MB-231 breast
OVCAR-3 ovarian = test system: OVCAR-3 ovarian
A549 NSCLC = test system: A549 NSCLC
SF-268 CNS = test system: SF-268 CNS
KM12 colon = test system: KM12 colon
MALME-3M melanoma = test system: MALME-3M melanoma
SN12C renal = test system: SN12C renal
CCRF-CEM leukemia = test system: CCRF-CEM leukemia
NCI-H460 lung = test system: NCI-H460 lung
NCI/ADR-RES ovarian = test system: NCI/ADR-RES ovarian
BT-549 breast = test system: BT-549 breast
ACHN renal = test system: ACHN renal
SK-OV-3 ovarian = test system: SK-OV-3 ovarian
NCI-H226 lung = test system: NCI-H226 lung
HS 578T breast = test system: HS 578T breast
PC-3 prostate = test system: PC-3 prostate
RXF 393 renal = test system: RXF 393 renal
OVCAR-8 ovarian = test system: OVCAR-8 ovarian
SNB-19 CNS = test system: SNB-19 CNS
HCC-2998 colon = test system: HCC-2998 colon
SF-539 CNS = test system: SF-539 CNS
K-562 leukemia = test system: K-562 leukemia
786-0 renal = test system: 786-0 renal
UO-31 renal = test system: UO-31 renal
TK-10 renal = test system: TK-10 renal
UACC-62 melanoma = test system: UACC-62 melanoma
OVCAR-5 ovarian = test system: OVCAR-5 ovarian
UACC-257 melanoma = test system: UACC-257 melanoma
LOX IMVI melanoma = test system: LOX IMVI melanoma
SK-MEL-2 melanoma = test system: SK-MEL-2 melanoma
U251 CNS = test system: U251 CNS
HOP-92 NSCLC = test system: HOP-92 NSCLC
MOLT-4 leukemia = test system: MOLT-4 leukemia
HT29 colon = test system: HT29 colon
NCI-H23 lung = test system: NCI-H23 lung
A498 renal = test system: A498 renal
HL-60(TB) leukemia = test system: HL-60(TB) leukemia
DU-145 prostate = test system: DU-145 prostate
MDA-MB-435 = test system: MDA-MB-435
MCF7 breast = test system: MCF7 breast
SK-MEL-28 melanoma = test system: SK-MEL-28 melanoma

Compound `CC(=O)OC1C(OC/C2=C/C3[C@@H](C(C)C)CC=C(C)[C@@H]3CC(OC(=O)/C=C/c3cn(C)cn3)[C@]3(C)C=C[C@@]2(O)O3)OCC(O)C1O` (stereo not given in full) has a GI50 (SNB-75 CNS) of 5.75 nM, a TGI (SNB-75 CNS) of 31.9 nM and a GI50 (SW-620 colon) of 18.8 nM. The TGI (SW-620 colon) was over 50000 nM, the GI50 (SF-295 CNS) was 30 nM and the TGI (SF-295 CNS) was 296 nM. It also gave a GI50 (RPMI-8226 leukemia) of 24.4 nM, a TGI (RPMI-8226 leukemia) of over 50000 nM and a GI50 (HOP-62 NSCLC) of 24.6 nM. For the same compound, the GI50 (SK-MEL-5 melanoma) was 16.5 nM, the GI50 (HCT-116 colon) was 11 nM and the TGI (HCT-116 colon) was over 50000 nM. The GI50 (EKVX NSCLC) was 70.7 nM, the TGI (EKVX NSCLC) was over 50000 nM and the GI50 (COLO 205 colon) was 11.2 nM. For the same compound, the TGI (COLO 205 colon) was 97.5 nM, the GI50 (HCT-15 colon) was 1200 nM and the TGI (HCT-15 colon) was over 50000 nM. It also gave a GI50 (T-47D breast) of 21.9 nM, a TGI (T-47D breast) of over 50000 nM and a GI50 (CAKI-1 renal) of 196 nM. It also gave a TGI (CAKI-1 renal) of over 13200 nM, a GI50 (NCI-H522 lung) of 15 nM and a GI50 (IGROV1 ovarian) of 73.7 nM. For the same compound, the TGI (IGROV1 ovarian) was over 50000 nM, the GI50 (SR leukemia) was 29.2 nM and the TGI (SR leukemia) was over 50000 nM. It also gave a GI50 (OVCAR-4 ovarian) of 58.6 nM, a TGI (OVCAR-4 ovarian) of over 50000 nM and a GI50 (MDA-MB-231 breast) of 421 nM. It also gave a TGI (MDA-MB-231 breast) of over 50000 nM, a GI50 (OVCAR-3 ovarian) of 10.5 nM and a TGI (OVCAR-3 ovarian) of 26.8 nM. For the same compound, the GI50 (A549 NSCLC) was 20.6 nM, the TGI (A549 NSCLC) was over 50000 nM and the GI50 (SF-268 CNS) was 33.6 nM. The TGI (SF-268 CNS) was over 50000 nM, the GI50 (KM12 colon) was 12.3 nM and the GI50 (MALME-3M melanoma) was 19.5 nM. It also gave a TGI (MALME-3M melanoma) of over 50000 nM, a GI50 (SN12C renal) of 186 nM and a TGI (SN12C renal) of over 50000 nM. It also gave a GI50 (CCRF-CEM leukemia) of 39.9 nM, a TGI (CCRF-CEM leukemia) of over 50000 nM and a GI50 (NCI-H460 lung) of 9.28 nM. It also gave a GI50 (NCI/ADR-RES ovarian) of 4810 nM, a TGI (NCI/ADR-RES ovarian) of over 39400 nM and a GI50 (BT-549 breast) of 12.9 nM. For the same compound, the TGI (BT-549 breast) was 136 nM, the GI50 (ACHN renal) was 381 nM and the TGI (ACHN renal) was over 50000 nM. For the same compound, the GI50 (SK-OV-3 ovarian) was 13.2 nM, the TGI (NCI-H226 lung) was over 50000 nM and the GI50 (HS 578T breast) was 8.31 nM. The TGI (HS 578T breast) was 35 nM, the GI50 (PC-3 prostate) was 27.1 nM and the TGI (PC-3 prostate) was over 50000 nM. It also gave a GI50 (RXF 393 renal) of 14.9 nM, a TGI (RXF 393 renal) of 74.1 nM and a GI50 (OVCAR-8 ovarian) of 44.3 nM. The TGI (OVCAR-8 ovarian) was over 50000 nM, the GI50 (SNB-19 CNS) was 36.4 nM and the TGI (SNB-19 CNS) was over 50000 nM. The GI50 (HCC-2998 colon) was 13.4 nM, the TGI (HCC-2998 colon) was 65.8 nM and the GI50 (SF-539 CNS) was 12.3 nM. It also gave a TGI (SF-539 CNS) of 59.8 nM, a GI50 (K-562 leukemia) of 15.7 nM and a TGI (K-562 leukemia) of over 50000 nM. For the same compound, the GI50 (786-0 renal) was 44.1 nM, the TGI (786-0 renal) was over 50000 nM and the GI50 (UO-31 renal) was 1130 nM. It also gave a TGI (UO-31 renal) of over 50000 nM, a GI50 (TK-10 renal) of 465 nM and a TGI (TK-10 renal) of over 50000 nM. It also gave a GI50 (UACC-62 melanoma) of 24.2 nM, a TGI (UACC-62 melanoma) of over 50000 nM and a GI50 (OVCAR-5 ovarian) of 20.7 nM. It also gave a GI50 (UACC-257 melanoma) of 18.8 nM, a TGI (UACC-257 melanoma) of over 50000 nM and a GI50 (LOX IMVI melanoma) of 23.4 nM. It also gave a TGI (LOX IMVI melanoma) of over 50000 nM, a GI50 (SK-MEL-2 melanoma) of 19.9 nM and a GI50 (U251 CNS) of 16 nM. The TGI (U251 CNS) was over 30300 nM, the GI50 (HOP-92 NSCLC) was 1020 nM and the TGI (HOP-92 NSCLC) was over 50000 nM. It also gave a GI50 (MOLT-4 leukemia) of 41.5 nM, a TGI (MOLT-4 leukemia) of over 50000 nM and a GI50 (HT29 colon) of 12.4 nM. For the same compound, the TGI (HT29 colon) was over 50000 nM, the GI50 (NCI-H23 lung) was 22.7 nM and the TGI (NCI-H23 lung) was over 50000 nM. It also gave a GI50 (A498 renal) of 12.2 nM, a TGI (A498 renal) of 106 nM and a GI50 (HL-60(TB) leukemia) of 16.4 nM. The TGI (HL-60(TB) leukemia) was 1510 nM, the GI50 (DU-145 prostate) was 15.5 nM and the TGI (DU-145 prostate) was 47.5 nM. The GI50 (MDA-MB-435) was 6.26 nM, the TGI (MDA-MB-435) was 20.8 nM and the GI50 (MCF7 breast) was 14.6 nM. It also gave a TGI (MCF7 breast) of over 50000 nM, a GI50 (SK-MEL-28 melanoma) of 38.9 nM and a TGI (SK-MEL-28 melanoma) of over 50000 nM.
